Where two headings read alike, the source gives them in different places.
Legend:
Experiment in all cases: Test B pre-/postemergence plant response
Assay type in all cases: in vivo
[1] = system: Italian ryegrass (Lolium multiflorum); conditions: for pest or weed control at 31 g/ha: 31 g ai/ha; for pest or weed control at 62 g/ha: 62 g ai/ha
How it was run: (§1)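 Visually scored on a 0 to 100 scale after 13 to 15 days in greenhouse versus controls. Treatments were preemergence on seeded loam/sand soil and postemergence on 1- to 4-leaf plants.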

[2] = system: Surinam grass (Brachiaria decumbens); conditions: for pest or weed control at 31 g/ha: 31 g ai/ha; for pest or weed control at 62 g/ha: 62 g ai/ha
How it was run: as §1

corn (Zea mays) = conditions: for Corn plant response rating (crop injury, 0 = no effect, 100 = complete kill) at 16 g/ha: 16 g ai/ha; for Corn plant response rating (crop injury, 0 = no effect, 100 = complete kill) at 31 g/ha: 31 g ai/ha; for Corn plant response rating (crop injury, 0 = no effect, 100 = complete kill) at 62 g/ha: 62 g ai/ha
How it was run: as §1

[3] = system: goosegrass (Eleusine indica); conditions: for pest or weed control at 16 g/ha: 16 g ai/ha; for pest or weed control at 16 g/ha / pest or weed control at 31 g/ha / pest or weed control at 62 g/ha: read-out: Plant response rating, Goosegrass; for pest or weed control at 31 g/ha: 31 g ai/ha; for pest or weed control at 62 g/ha: 62 g ai/ha
How it was run: as §1

[4] = system: lambsquarters (Chenopodium album); conditions: for pest or weed control at 16 g/ha: 16 g ai/ha; for pest or weed control at 16 g/ha / pest or weed control at 31 g/ha / pest or weed control at 62 g/ha: read-out: Plant response rating, Lambsquarters; for pest or weed control at 31 g/ha: 31 g ai/ha; for pest or weed control at 62 g/ha: 62 g ai/ha
How it was run: as §1

[5] = system: large crabgrass (Digitaria sanguinalis); conditions: for pest or weed control at 16 g/ha: 16 g ai/ha; for pest or weed control at 16 g/ha / pest or weed control at 31 g/ha / pest or weed control at 62 g/ha: read-out: Plant response rating, Crabgrass, Large; for pest or weed control at 31 g/ha: 31 g ai/ha; for pest or weed control at 62 g/ha: 62 g ai/ha
How it was run: as §1

[6] = system: nightshade (eastern black nightshade, Solanum ptycanthum); conditions: Preemergence
How it was run: as §1

[7] = system: pigweed (Amaranthus retroflexus); conditions: for pest or weed control at 16 g/ha: 16 g ai/ha; for pest or weed control at 16 g/ha / pest or weed control at 31 g/ha / pest or weed control at 62 g/ha: read-out: Plant response rating, Pigweed; for pest or weed control at 31 g/ha: 31 g ai/ha; for pest or weed control at 62 g/ha: 62 g ai/ha
How it was run: as §1

[8] = system: sunflower (common oilseed sunflower, Helianthus annuus); conditions: Preemergence
How it was run: as §1

[9] = system: woolly cupgrass (Eriochloa villosa); conditions: for pest or weed control at 16 g/ha: 16 g ai/ha; for pest or weed control at 16 g/ha / pest or weed control at 31 g/ha / pest or weed control at 62 g/ha: read-out: Plant response rating, Cupgrass, Woolly; for pest or weed control at 31 g/ha: 31 g ai/ha; for pest or weed control at 62 g/ha: 62 g ai/ha
How it was run: as §1

[10] = Lolium multiflorum, pre-emergence, Preemergence, scale 0 to 100 (0 no effect, 100 complete control), read-out: Plant response rating, Ryegrass, Italian
[11] = Preemergence, 125 g ai/ha, 0 to 100 scale
[12] = Urochloa decumbens, pre-emergence, Preemergence, scale 0 to 100 (0 no effect, 100 complete control), read-out: Plant response rating, Surinam Grass
[13] = Zea mays, pre-emergence, Preemergence, scale 0 to 100 (0 no effect, 100 complete control)
[14] = Eleusine indica, pre-emergence, Preemergence, scale 0 to 100 (0 no effect, 100 complete control)
[15] = Chenopodium album, pre-emergence, Preemergence, scale 0 to 100 (0 no effect, 100 complete control)
[16] = Digitaria sanguinalis, pre-emergence, Preemergence, scale 0 to 100 (0 no effect, 100 complete control)
[17] = 31 g ai/ha, scale 0 to 100 (0 no effect, 100 complete control)
[18] = 62 g ai/ha, scale 0 to 100, 0 no effect, 100 complete control
[19] = Amaranthus retroflexus, pre-emergence, Preemergence, scale 0 to 100 (0 no effect, 100 complete control)
[20] = Eriochloa villosa, pre-emergence, Preemergence, scale 0 to 100 (0 no effect, 100 complete control)

O=C1CCCC(O)=C1C(=O)c1cnc(-c2ccccc2)n(-c2ccccc2)c1=O [Compound 2, 5-[(2-hydroxy-6-oxo-1-cyclohexen-1-yl)carbonyl]-2,3-diphenyl-4(3H)-pyrimidinone]
pest or weed control at 16 g/ha ([1]; Lolium multiflorum, post-emergence, 16 g ai/ha, Postemergence, 0 to 100 scale, read-out: Plant response rating, Ryegrass, Italian): 0%
pest or weed control at 31 g/ha ([1]; Lolium multiflorum, post-emergence, Postemergence, scale 0 to 100 (0 no effect, 100 complete control), read-out: Plant response rating, Ryegrass, Italian): 0%
pest or weed control at 62 g/ha ([1]; Lolium multiflorum, post-emergence, Postemergence, scale 0 (no effect) to 100 (complete control), 13 to 15 days, read-out: Plant response rating, Ryegrass, Italian): 40%
pest or weed control at 125 g/ha ([1]; Lolium multiflorum, post-emergence, Postemergence, 125 g ai/ha, visual rating after 13 to 15 days, scale 0 (no effect) to 100 (complete control)): 40%
pest or weed control at 31 g/ha [1, 10]: 0%
pest or weed control at 62 g/ha [1, 10]: 0%
Ryegrass, Italian plant response rating [1, 11]: 5
Surinam Grass plant response rating [2, 11]: 60
pest or weed control at 16 g/ha ([2]; Urochloa decumbens, post-emergence, 16 g ai/ha, Postemergence, 0 to 100 scale, read-out: Plant response rating, Surinam Grass): 70%
pest or weed control at 31 g/ha ([2]; Urochloa decumbens, post-emergence, Postemergence, scale 0 to 100 (0 no effect, 100 complete control), read-out: Plant response rating, Surinam Grass): 70%
pest or weed control at 62 g/ha ([2]; Urochloa decumbens, post-emergence, Postemergence, scale 0 (no effect) to 100 (complete control), 13 to 15 days, read-out: Plant response rating, Surinam Grass): 75%
pest or weed control at 125 g/ha ([2]; Urochloa decumbens, post-emergence, Postemergence, 125 g ai/ha, visual rating after 13 to 15 days, scale 0 (no effect) to 100 (complete control)): 85%
pest or weed control at 31 g/ha [2, 12]: 15%
pest or weed control at 62 g/ha [2, 12]: 20%
Corn plant response rating (corn (Zea mays); [11]): 0
Corn plant response rating (crop injury, 0 = no effect, 100 = complete kill) at 16 g/ha (corn (Zea mays); Zea mays, post-emergence, Postemergence, 0 to 100 scale): 15%
Corn plant response rating (crop injury, 0 = no effect, 100 = complete kill) at 31 g/ha (corn (Zea mays); Zea mays, post-emergence, Postemergence, scale 0 to 100 (0 no effect, 100 complete control)): 15%
Corn plant response rating (crop injury, 0 = no effect, 100 = complete kill) at 62 g/ha (corn (Zea mays); Zea mays, post-emergence, Postemergence, scale 0 (no effect) to 100 (complete control), 13 to 15 days): 25%
Corn plant response rating (crop injury, 0 = no effect, 100 = complete kill) at 125 g/ha (corn (Zea mays); Zea mays, post-emergence, Postemergence, 125 g ai/ha, visual rating after 13 to 15 days, scale 0 (no effect) to 100 (complete control)): 35%
Corn plant response rating (crop injury, 0 = no effect, 100 = complete kill) at 16 g/ha (corn (Zea mays); [13]): 0%
Corn plant response rating (crop injury, 0 = no effect, 100 = complete kill) at 31 g/ha (corn (Zea mays); [13]): 0%
Corn plant response rating (crop injury, 0 = no effect, 100 = complete kill) at 62 g/ha (corn (Zea mays); Zea mays, pre-emergence, Preemergence, scale 0 to 100, 0 no effect, 100 complete control): 0%
pest or weed control at 16 g/ha ([3]; Eleusine indica, post-emergence, Postemergence, 0 to 100 scale): 80%
pest or weed control at 31 g/ha ([3]; Eleusine indica, post-emergence, Postemergence, scale 0 to 100 (0 no effect, 100 complete control)): 80%
pest or weed control at 62 g/ha ([3]; Eleusine indica, post-emergence, Postemergence, scale 0 (no effect) to 100 (complete control), 13 to 15 days): 90%
pest or weed control at 125 g/ha ([3]; Eleusine indica, post-emergence, Postemergence, 125 g ai/ha, visual rating after 13 to 15 days, scale 0 (no effect) to 100 (complete control)): 95%
pest or weed control at 16 g/ha [3, 14]: 0%
pest or weed control at 31 g/ha [3, 14]: 85%
pest or weed control at 62 g/ha ([3]; Eleusine indica, pre-emergence, Preemergence, scale 0 to 100, 0 no effect, 100 complete control): 100%
Goosegrass plant response rating [3, 11]: 100
pest or weed control at 16 g/ha ([4]; Chenopodium album, post-emergence, Postemergence, 0 to 100 scale): 80%
pest or weed control at 31 g/ha ([4]; Chenopodium album, post-emergence, Postemergence, scale 0 to 100 (0 no effect, 100 complete control)): 90%
pest or weed control at 62 g/ha ([4]; Chenopodium album, post-emergence, Postemergence, scale 0 (no effect) to 100 (complete control), 13 to 15 days): 90%
pest or weed control at 125 g/ha ([4]; Chenopodium album, post-emergence, Postemergence, 125 g ai/ha, visual rating after 13 to 15 days, scale 0 (no effect) to 100 (complete control)): 95%
pest or weed control at 16 g/ha [4, 15]: 100%
pest or weed control at 31 g/ha [4, 15]: 100%
pest or weed control at 62 g/ha ([4]; Chenopodium album, pre-emergence, Preemergence, scale 0 to 100, 0 no effect, 100 complete control): 100%
Lambsquarters plant response rating [4, 11]: 100
pest or weed control at 16 g/ha ([5]; Digitaria sanguinalis, post-emergence, Postemergence, 0 to 100 scale): 70%
pest or weed control at 31 g/ha ([5]; Digitaria sanguinalis, post-emergence, Postemergence, scale 0 to 100 (0 no effect, 100 complete control)): 80%
pest or weed control at 62 g/ha ([5]; Digitaria sanguinalis, post-emergence, Postemergence, scale 0 (no effect) to 100 (complete control), 13 to 15 days): 85%
pest or weed control at 125 g/ha ([5]; Digitaria sanguinalis, post-emergence, Postemergence, 125 g ai/ha, visual rating after 13 to 15 days, scale 0 (no effect) to 100 (complete control)): 90%
pest or weed control at 16 g/ha [5, 16]: 0%
pest or weed control at 31 g/ha [5, 16]: 15%
pest or weed control at 62 g/ha ([5]; Digitaria sanguinalis, pre-emergence, Preemergence, scale 0 to 100, 0 no effect, 100 complete control): 100%
Crabgrass, Large plant response rating [5, 11]: 100
Plant response rating, Nightshade ([6]; 16 g ai/ha, scale 0 to 100, 0 no effect, 100 complete control): 55
Plant response rating, Nightshade [6, 17]: 98
Plant response rating, Nightshade [6, 18]: 100
Nightshade plant response rating ([6]; 125 g ai/ha, 0 to 100 scale): 100
pest or weed control at 16 g/ha ([7]; Amaranthus retroflexus, post-emergence, Postemergence, 0 to 100 scale): 70%
pest or weed control at 31 g/ha ([7]; Amaranthus retroflexus, post-emergence, Postemergence, scale 0 to 100 (0 no effect, 100 complete control)): 85%
pest or weed control at 62 g/ha ([7]; Amaranthus retroflexus, post-emergence, Postemergence, scale 0 (no effect) to 100 (complete control), 13 to 15 days): 90%
pest or weed control at 125 g/ha ([7]; Amaranthus retroflexus, post-emergence, Postemergence, 125 g ai/ha, visual rating after 13 to 15 days, scale 0 (no effect) to 100 (complete control)): 95%
pest or weed control at 16 g/ha [7, 19]: 98%
pest or weed control at 31 g/ha [7, 19]: 100%
pest or weed control at 62 g/ha [7, 19]: 100%
Pigweed plant response rating [7, 11]: 100
Plant response rating, Sunflower [8, 17]: 50
Plant response rating, Sunflower [8, 18]: 70
Sunflower plant response rating ([8]; 125 g ai/ha, 0 to 100 scale): 90
pest or weed control at 16 g/ha ([9]; Eriochloa villosa, post-emergence, Postemergence, 0 to 100 scale): 75%
pest or weed control at 31 g/ha ([9]; Eriochloa villosa, post-emergence, Postemergence, scale 0 to 100 (0 no effect, 100 complete control)): 75%
pest or weed control at 62 g/ha ([9]; Eriochloa villosa, post-emergence, Postemergence, scale 0 (no effect) to 100 (complete control), 13 to 15 days): 80%
pest or weed control at 125 g/ha ([9]; Eriochloa villosa, post-emergence, Postemergence, 125 g ai/ha, visual rating after 13 to 15 days, scale 0 (no effect) to 100 (complete control)): 85%
pest or weed control at 16 g/ha [9, 20]: 0%
pest or weed control at 31 g/ha [9, 20]: 0%
pest or weed control at 62 g/ha ([9]; Eriochloa villosa, pre-emergence, Preemergence, scale 0 to 100, 0 no effect, 100 complete control): 15%
Cupgrass, Woolly plant response rating [9, 11]: 20

Source: patent US8952024B2, “Herbicidal pyrimidone derivatives” (E I du Pont de Nemours and Company, priority 2009, dated 2015)
